Laboratory results published in PMC12596500, “Affinity-selected peptide ligands specifically bind i-motif DNA and modulate c-Myc gene expression” (Nucleic Acids Research, 2025).
Read-outs that look alike come from different tables or passages of the source. Peptide text beside a SMILES is read from it.

How the values were obtained:
DAPc = test: UV titration, DAPc; assay type: binding; parameters: key to Kd DAPc, 100 mM KCl: Binding classified as non-specific (NS) showed no consistent or concentration-dependent pattern, under the tested conditions; key to Kd DAPc: NS = non-specific binding indicates where no significant pattern of binding was observed at the concentration range of the experiment; conditions: for Kd DAPc: UV titration at 350 nm, 10 µM peptide, 10 mM sodium cacodylate pH 6.6, no KCl; for Kd DAPc, 100 mM KCl: UV titration, 10 mM sodium cacodylate 100 mM potassium chloride pH 6.6, two experiments
Procedure: (§1) UV titrations were recorded using an Agilent Cary-60 UV/VIS spectrometer with a 10 mm path length black-walled quartz cuvette. Oligonucleotides (c-MycC27, c-MycC52, c-MycG27, c-MycG52, DAPc, DAPg, and dsDNA; sequences listed in Supplementary Table S1) were annealed as 250 µM stock solutions in 10 mM sodium cacodylate buffer (pH 6.6) in the presence or absence of 100 mM KCl. Spectra were recorded at room temperature over a wavelength range of 300–500 nm with 1 nm intervals. Buffer-only spectra were recorded and subtracted from each dataset as blanks. Peptide ligands were prepared as 1 mM stock solutions in DMSO and added to the cuvette at a final concentration of 10 µM in buffer prior to DNA addition. DNA stock was diluted to 50 µM in buffer and was added stepwise to the peptide solution to reach 2.5 µM final concentration, followed by additions from the 250 µM DNA stock to reach final DNA concentrations of 30 or 50 µM. The absorbance at 350 nm was monitored and plotted against DNA concentration. Binding curves were fitted using a one-site binding model in GraphPad Prism version 10.1.2, and Kd values were determined from normalized data to represent the DNA-ligand bound fraction.
(§2) Despite the demonstrable importance of the extended five-tract C-rich sequence within the c-Myc promoter, most studies looking at ligand binding use the shorter sequences. […] Although the iM-targeting antibody is specific for iM as a structure, it also binds multiple types of iM-structures.

c-MycC52 = conditions: 10 µM DNA; for TM c-MycC52, first (lower) transition / TM c-MycC52, second (higher) transition: 10 mM NaCaco pH 6.6, 10 molar eqv. peptide, mean ± SEM (n=4); for ΔTM c-MycC52, transition at lower temperatures / ΔTM c-MycC52, second transition at higher temperatures: 10 mM sodium cacodylate pH 6.6, 10 molar equivalents peptide vs DMSO, mean ± SEM (n = 4)
Procedure: (§3) Circular Dichroism (CD) melting experiments were performed in a Jasco J-1500 spectropolarimeter with 10 µM DNA samples in 10 mM sodium cacodylate buffer at pH 6.6 using a 1 mm path length quartz cuvette. […] The samples were kept at 5°C for 5 min before starting the melt, with a temperature increase of 1°C/min, a 0.5°C data interval, and a 60-s holding time at each target temperature. Four scans were accumulated data pitch of 0.5 nm, a scanning speed of 200 nm/min, 1 s response time, 2 nm bandwidth, and 200 mdeg sensitivity. Furthermore, two CD melting experiment repeats were performed recording C-rich c-Myc at 288 and 320 nm, G-rich c-Myc at 264 and 320 nm, and dsDNA at 253 and 320 nm with the settings as described for full spectrum measurements. Data were zero corrected to 320 nm and baseline drift. The melting temperature (TM) was concluded using the Boltzmann or biphasic fitting curve on the folded fraction data using GraphPad Prism version 10.1.2. Data were processed as mean ± SEM (n = 4) and one-way ANOVA followed by Bonferroni post-hoc test to determine significant changes between peptides and controls.

c-MycG52 = conditions: 10 µM DNA; for TM c-MycG52: 10 mM NaCaco pH 6.6, 10 molar eqv. peptide, mean ± SEM (n=4); for ΔTM c-MycG52: 10 mM sodium cacodylate pH 6.6, 10 molar equivalents peptide vs DMSO, mean ± SEM (n = 4)
Procedure: as §3

c-MycG27 = test: CD melting of c-MycG27; assay type: binding; conditions: 10 µM DNA; for TM c-MycG27: 10 mM NaCaco pH 6.6, 10 molar eqv. peptide, mean ± SEM (n=4); for effect on c-MycG27 thermal stability, in words: pH 6.6, 10 molar equivalents peptide
Procedure: as §3

DAPg = test: UV titration, DAPg; assay type: binding; parameters: key to Kd DAPg, 100 mM KCl: Binding classified as non-specific (NS) showed no consistent or concentration-dependent pattern, under the tested conditions; key to Kd DAPg: NS = non-specific binding indicates where no significant pattern of binding was observed at the concentration range of the experiment; conditions: for Kd DAPg: UV titration at 350 nm, 10 µM peptide, 10 mM sodium cacodylate pH 6.6, no KCl; for Kd DAPg, 100 mM KCl: UV titration, 10 mM sodium cacodylate 100 mM potassium chloride pH 6.6, two experiments
Procedure: as §1, §2

c-MycC27 = test: CD melting of c-MycC27; assay type: binding; conditions: 10 µM DNA; for TM c-MycC27, first (lower) transition / TM c-MycC27, second (higher) transition: 10 mM NaCaco pH 6.6, 10 molar eqv. peptide, mean ± SEM (n=4); for effect on c-MycC27 thermal stability, in words: pH 6.6, 10 molar equivalents peptide
Procedure: as §3

dsDNA (DS) = test: CD melting of double-stranded DNA; assay type: binding; conditions: for TM DS / ΔTM DS: 10 µM DNA, SEM; for TM DS / effect on dsDNA melting compared to the solvent controls, in words: 10 mM NaCaco pH 6.6, 10 molar eqv. peptide; for TM DS: mean ± SEM (n=4); for ΔTM DS: 10 mM sodium cacodylate pH 6.6, 10 molar equivalents peptide vs DMSO, mean ± SEM (n = 4); for effect on dsDNA melting compared to the solvent controls, in words: 10 µM DS
Procedure: as §3

c-MycC52 iM = test: Fluorescent indicator displacement (FID) assay with Thiazole Orange; assay type: binding; conditions: 1 µM c-MycC52, 2 µM TO, 10 mM sodium cacodylate pH 6.6, peptides 25-200 µM, n = 3
Procedure: Fluorescent indicator displacement (FID) experiments used in this publication are based on the first FID assay developed for iM DNA [35]. The FID experiments were performed on a BMG CLARIOstar plate reader using 96-well, solid black flat-bottom plates. Thiazole Orange (TO) was the indicator, and the stock solution was prepared at 10 mM in DMSO. The TO stock was diluted into the appropriate buffer to 2 µM. Each well received 9 µl of the 2 µM TO solution, was excited at 430 nm, and fluorescence emission at 450 nm was measured; this was normalized to 0% to account for background fluorescence. One microlitre of […] DNA was added to each well and shaken in the plate reader for 30 s using double orbital shaking at 700 rpm and left for 10 min to equilibrate. Following equilibration, fluorescence emission was measured and normalized to 100% representing maximum fluorescence. Peptides were titrated starting at 25 µM, with 0.9 µl additions into each well in triplicate, until a final concentration of 200 µM was reached, and fluorescence emission was measured after each addition. Fluorescence emission for each well was normalized between 0% and 100%, which was taken away from 100 to give the percentage of displacement. The data were analyzed in Origin data analysis software and fitted with a hyperbolic dose–response curve from which the DC50 value was interpolated.
The relative binding of the five peptide ligands to the folded c-MycC52 iM was assessed via a FID assay using TO (Fig. 1). These experiments were performed in 10 mM sodium cacodylate at pH 6.6, the transitional pH of the c-Myc iM-forming sequence. As iM-formation is reduced at higher pH and higher ionic strength, additional stabilizing cations were avoided to allow the highest proportion of iM formation at the highest pH, to represent as close to physiological pH conditions as possible.
Figure 1. Concentration-dependent interaction of peptides with c-MycC52 iM determined via FID assay. The assay was performed with 1 µM c-MycC52 in 10 mM sodium cacodylate, pH 6.6, in the presence of 2 µM TO. Peptide ligands were added in increments of 25 µM up to a final concentration of 200 µM. Data are presented as mean ± SD (n = 3) and fitted using a Hill-Slope dose–response curve.

[1] = 10 mM sodium cacodylate pH 6.6, 10 molar equivalents peptide vs DMSO, mean ± SEM (n = 4), SEM

Compound | Kd DAPc (DAPc) | Kd DAPc, 100 mM KCl (DAPc) | TM c-MycC52, first (lower) transition (c-MycC52; SEM) [°C] | TM c-MycC52, second (higher) transition (c-MycC52; SEM) [°C] | ΔTM c-MycC52, second transition at higher temperatures (c-MycC52; SEM) [°C] | ΔTM c-MycC52, transition at lower temperatures (c-MycC52; SEM) [°C] | TM c-MycG52 (c-MycG52) [°C] | ΔTM c-MycG52 (c-MycG52) | TM c-MycG27 (c-MycG27; SEM) [°C] | effect on c-MycG27 thermal stability, in words (c-MycG27) | Kd DAPg (DAPg) | Kd DAPg, 100 mM KCl (DAPg) | TM c-MycC27, first (lower) transition (c-MycC27; SEM) [°C] | TM c-MycC27, second (higher) transition (c-MycC27; SEM) [°C] | ΔTM c-MycC27, first value (transition at lower temperature) (c-MycC27; [1]) | effect on c-MycC27 thermal stability, in words (c-MycC27) | TM DS (dsDNA (DS)) [°C] | ΔTM DS (dsDNA (DS)) [°C] | effect on dsDNA melting compared to the solvent controls, in words (dsDNA (DS)) | relative binding affinity ranking (TO displacement) (c-MycC52 iM) | also measured
CC(=O)N1CCC[C@H]1C(=O)N[C@H](C(=O)N[C@@H](CC(N)=O)C(=O)N[C@H](C(=O)N[C@@H](CO)C(=O)NCC(=O)N[C@@H](CCCNC(=N)N)C(=O)N[C@@H](CC(N)=O)C(=O)N[C@@H](Cc1ccc(O)cc1)C(=O)N[C@@H](CC(C)C)C(=O)N[C@@H](Cc1ccccc1)C(=O)N[C@@H](CS)C(N)=O)C(C)C)[C@@H](C)O [Pep-PTN] (Ac-PTNVSGRNYLFC-NH2) | NS | NS | 32 ± 2.0 | 79 ± 0.8 | −2 ± 0.3 | −1 ± 0.5 | 45 ± 1.0 | +2 ± 0.3 °C | 50 ± 1.0 | neither stabilized nor destabilized | NS | NS | 27 ± 0.7 | 79 ± 0.5 | 0 ± 0.5; 0 ± 0.5 °C | neither stabilized nor destabilized | 52 ± 1.0 | 0 ± 0.6 | no effect on dsDNA melting | SLC > PTN > VSE > EIE > RVS | ΔTM c-MycC52, transition at lower temperatures (c-MycC52): no significant change; decrease in TM of the more stable iM population of c-MycC52 (c-MycC52; pH 6.6, 10 molar equivalents peptide, given as a decrease, without sign): 2 ± 0.3 °C; ΔTM c-MycG27 (c-MycG27; [1]): −1 ± 0.5 °C; ΔTM c-MycC27, second value (transition at higher temperature) (c-MycC27; [1]): 0 ± 0.5; 0 ± 0.5 °C
CC(=O)N[C@H](C(=O)N[C@@H](CO)C(=O)N[C@@H](CCC(=O)O)C(=O)N[C@@H](C)C(=O)N[C@@H](Cc1c[nH]c2ccccc12)C(=O)N[C@@H](CCCCN)C(=O)N[C@@H](CCC(=O)O)C(=O)N[C@H](C(=O)N[C@@H](CCCCN)C(=O)NCC(=O)N[C@@H](Cc1ccccc1)C(=O)N[C@@H](Cc1ccccc1)C(N)=O)C(C)C)C(C)C [Pep-VSE] (Ac-VSEAWKEVKGFF-NH2) | NS | NS | 33 ± 0.9 | 74 ± 0.7 | −14 ± 0.5 | −3 ± 0.2 | 48 ± 1.0 | +4 ± 0.1 °C | 48 ± 1.0 | neither stabilized nor destabilized | NS | NS | 26 ± 1.0 | 80 ± 0.6 | 0 ± 0.6 °C | neither stabilized nor destabilized | 51 ± 0.8 | 0 ± 0.8 | no effect on dsDNA melting | SLC > PTN > VSE > EIE > RVS | –
